Blank lines part the entries; values can stand above or below the compound they belong to. Active and inactive are the calls of the source. The rule behind the calls is not given here.
What was measured:
[1] = Inhibition of di-phosphorylated human Insulin receptor (978 to 1283 residues) C981S mutant kinase domain expressed in baculovirus infected Sf9 cells incubated for 1 hr by [gamma-33P]ATP assay
[2] = molecular target: Phosphorylase b kinase gamma catalytic chain, skeletal muscle/heart isoform (Homo sapiens) (UniProt Q16816); assay: Inhibition of human PHKg1 at 18.6 nM by HotSpot assay relative to control
[3] = molecular target: Cyclin-dependent kinase 1/cyclin B1 (Homo sapiens) (UniProt P06493+P14635); assay: Inhibition of human CDK1/cyclin B at 18.6 nM by HotSpot assay relative to control; type: protein-complex assay
[4] = molecular target: Serine/threonine-protein kinase 25 (Homo sapiens) (UniProt O00506); assay: Inhibition of human YSK1 at 18.6 nM by HotSpot assay relative to control
[5] = molecular target: Platelet-derived growth factor receptor beta (Homo sapiens) (UniProt P09619); assay: Inhibition of human PDGFRb at 18.6 nM by HotSpot assay relative to control
[6] = molecular target: Focal adhesion kinase 1 (Homo sapiens) (UniProt Q05397); assay: Inhibition of human FAK at 18.6 nM by HotSpot assay relative to control
[7] = molecular target: Serine/threonine-protein kinase pim-2 (Homo sapiens) (UniProt Q9P1W9); assay: Inhibition of human PIM2 at 18.6 nM by HotSpot assay relative to control
[8] = molecular target: T1, Ephrin type-B receptor 2 (Homo sapiens) (UniProt P29323); assay: Inhibition of human EPHB2 at 1.82 nM by HotSpot assay relative to control
T1 sequence (whole entry): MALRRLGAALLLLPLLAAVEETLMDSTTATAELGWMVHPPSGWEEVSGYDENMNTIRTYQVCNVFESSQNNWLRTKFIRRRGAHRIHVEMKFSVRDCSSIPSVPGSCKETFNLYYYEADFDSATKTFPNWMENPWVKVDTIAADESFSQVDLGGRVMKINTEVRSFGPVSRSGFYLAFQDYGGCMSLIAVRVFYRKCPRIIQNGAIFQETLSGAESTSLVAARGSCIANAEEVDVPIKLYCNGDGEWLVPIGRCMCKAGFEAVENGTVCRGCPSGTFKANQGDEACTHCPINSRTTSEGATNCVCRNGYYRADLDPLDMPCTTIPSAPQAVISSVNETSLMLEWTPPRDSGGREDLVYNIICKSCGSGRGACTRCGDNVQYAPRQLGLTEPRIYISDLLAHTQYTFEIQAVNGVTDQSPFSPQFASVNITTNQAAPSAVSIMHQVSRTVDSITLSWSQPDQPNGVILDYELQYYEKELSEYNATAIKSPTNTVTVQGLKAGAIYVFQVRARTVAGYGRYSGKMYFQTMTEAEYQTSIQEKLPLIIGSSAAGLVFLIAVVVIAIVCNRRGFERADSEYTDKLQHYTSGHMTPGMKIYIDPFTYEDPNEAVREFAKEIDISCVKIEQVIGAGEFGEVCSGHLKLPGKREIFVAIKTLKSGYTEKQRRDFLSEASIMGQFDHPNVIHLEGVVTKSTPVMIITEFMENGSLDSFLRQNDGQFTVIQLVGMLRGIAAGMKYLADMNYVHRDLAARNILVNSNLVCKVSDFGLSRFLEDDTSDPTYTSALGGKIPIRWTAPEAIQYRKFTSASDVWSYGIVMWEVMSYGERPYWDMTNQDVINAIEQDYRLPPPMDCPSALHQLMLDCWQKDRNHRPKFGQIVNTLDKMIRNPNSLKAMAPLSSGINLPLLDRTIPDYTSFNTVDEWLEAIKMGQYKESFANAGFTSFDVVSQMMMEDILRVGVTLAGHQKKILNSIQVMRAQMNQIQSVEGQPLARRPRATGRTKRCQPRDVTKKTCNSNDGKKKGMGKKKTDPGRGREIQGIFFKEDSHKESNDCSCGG

[9] = molecular target: T2, Tyrosine-protein kinase ITK/TSK (Homo sapiens) (UniProt Q08881); assay: Inhibition of human ITK at 1.82 nM by HotSpot assay relative to control
T2 sequence (whole entry): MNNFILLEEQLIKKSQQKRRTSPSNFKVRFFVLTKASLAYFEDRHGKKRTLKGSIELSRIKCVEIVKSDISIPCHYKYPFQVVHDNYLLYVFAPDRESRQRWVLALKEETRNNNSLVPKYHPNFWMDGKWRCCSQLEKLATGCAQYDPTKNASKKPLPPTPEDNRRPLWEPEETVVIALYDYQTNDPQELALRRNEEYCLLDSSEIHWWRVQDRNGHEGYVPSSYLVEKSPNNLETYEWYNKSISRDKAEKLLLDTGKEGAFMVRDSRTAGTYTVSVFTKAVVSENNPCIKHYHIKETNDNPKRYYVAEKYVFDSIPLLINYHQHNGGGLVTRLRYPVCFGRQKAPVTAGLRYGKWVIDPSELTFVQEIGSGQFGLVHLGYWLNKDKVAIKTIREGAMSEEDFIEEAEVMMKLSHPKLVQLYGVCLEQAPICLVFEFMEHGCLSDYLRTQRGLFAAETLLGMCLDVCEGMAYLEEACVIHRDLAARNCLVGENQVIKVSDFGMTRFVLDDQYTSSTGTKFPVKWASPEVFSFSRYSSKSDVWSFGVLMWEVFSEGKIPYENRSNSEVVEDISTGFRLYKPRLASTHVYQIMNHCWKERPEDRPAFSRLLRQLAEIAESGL

[10] = molecular target: Mitogen-activated protein kinase 8 (Homo sapiens) (UniProt P45983); assay: Inhibition of human JNK1 at 1.82 nM by HotSpot assay relative to control
[11] = molecular target: Activin receptor type-1-like (Homo sapiens) (UniProt P37023); assay: Inhibition of human ALK1 at 1.82 nM by HotSpot assay relative to control
[12] = molecular target: Mitogen-activated protein kinase 14 (Homo sapiens) (UniProt Q16539); assay: Inhibition of human MAPK14 at 1.82 nM by HotSpot assay relative to control
Sequence of Mitogen-activated protein kinase 14 (Homo sapiens) (Q16539 whole entry): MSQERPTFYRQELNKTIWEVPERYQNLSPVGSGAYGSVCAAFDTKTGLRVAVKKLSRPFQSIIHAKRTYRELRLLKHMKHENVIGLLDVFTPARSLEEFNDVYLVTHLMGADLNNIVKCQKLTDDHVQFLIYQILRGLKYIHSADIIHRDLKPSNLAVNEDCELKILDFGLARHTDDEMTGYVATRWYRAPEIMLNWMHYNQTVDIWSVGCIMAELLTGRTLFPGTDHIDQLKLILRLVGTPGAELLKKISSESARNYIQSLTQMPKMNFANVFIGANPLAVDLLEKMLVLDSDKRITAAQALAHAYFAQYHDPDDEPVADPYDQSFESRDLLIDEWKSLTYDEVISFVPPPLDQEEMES

Sequence of Activin receptor type-1-like (Homo sapiens) (P37023 whole entry): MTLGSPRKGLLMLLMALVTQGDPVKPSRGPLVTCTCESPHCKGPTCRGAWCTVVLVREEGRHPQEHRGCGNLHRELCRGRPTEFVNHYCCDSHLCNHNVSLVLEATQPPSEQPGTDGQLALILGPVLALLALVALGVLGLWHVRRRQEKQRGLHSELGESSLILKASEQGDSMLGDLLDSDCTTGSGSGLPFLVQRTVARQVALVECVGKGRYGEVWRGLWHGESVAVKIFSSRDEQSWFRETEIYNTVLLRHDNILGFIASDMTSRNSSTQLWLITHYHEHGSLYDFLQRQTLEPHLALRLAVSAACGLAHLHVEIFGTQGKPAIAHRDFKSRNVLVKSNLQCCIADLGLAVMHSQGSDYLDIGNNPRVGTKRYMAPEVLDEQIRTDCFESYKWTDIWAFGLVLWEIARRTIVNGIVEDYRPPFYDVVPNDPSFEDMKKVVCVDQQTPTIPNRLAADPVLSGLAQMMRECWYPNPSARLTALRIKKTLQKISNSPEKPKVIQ
Sequence of Phosphorylase b kinase gamma catalytic chain, skeletal muscle/heart isoform (Homo sapiens) (Q16816 whole entry, looked up, canonical isoform): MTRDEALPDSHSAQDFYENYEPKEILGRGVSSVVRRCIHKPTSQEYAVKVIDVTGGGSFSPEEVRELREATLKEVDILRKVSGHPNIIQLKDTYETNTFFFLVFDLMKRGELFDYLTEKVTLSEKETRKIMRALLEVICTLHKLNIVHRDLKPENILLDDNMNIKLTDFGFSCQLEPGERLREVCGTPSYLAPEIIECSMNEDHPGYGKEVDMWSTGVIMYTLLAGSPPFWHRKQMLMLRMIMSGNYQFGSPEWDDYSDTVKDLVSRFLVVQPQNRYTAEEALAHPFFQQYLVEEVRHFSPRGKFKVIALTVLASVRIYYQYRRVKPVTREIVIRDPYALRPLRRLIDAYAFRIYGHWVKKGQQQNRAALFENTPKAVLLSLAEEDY
Sequence of Platelet-derived growth factor receptor beta (Homo sapiens) (P09619 whole entry): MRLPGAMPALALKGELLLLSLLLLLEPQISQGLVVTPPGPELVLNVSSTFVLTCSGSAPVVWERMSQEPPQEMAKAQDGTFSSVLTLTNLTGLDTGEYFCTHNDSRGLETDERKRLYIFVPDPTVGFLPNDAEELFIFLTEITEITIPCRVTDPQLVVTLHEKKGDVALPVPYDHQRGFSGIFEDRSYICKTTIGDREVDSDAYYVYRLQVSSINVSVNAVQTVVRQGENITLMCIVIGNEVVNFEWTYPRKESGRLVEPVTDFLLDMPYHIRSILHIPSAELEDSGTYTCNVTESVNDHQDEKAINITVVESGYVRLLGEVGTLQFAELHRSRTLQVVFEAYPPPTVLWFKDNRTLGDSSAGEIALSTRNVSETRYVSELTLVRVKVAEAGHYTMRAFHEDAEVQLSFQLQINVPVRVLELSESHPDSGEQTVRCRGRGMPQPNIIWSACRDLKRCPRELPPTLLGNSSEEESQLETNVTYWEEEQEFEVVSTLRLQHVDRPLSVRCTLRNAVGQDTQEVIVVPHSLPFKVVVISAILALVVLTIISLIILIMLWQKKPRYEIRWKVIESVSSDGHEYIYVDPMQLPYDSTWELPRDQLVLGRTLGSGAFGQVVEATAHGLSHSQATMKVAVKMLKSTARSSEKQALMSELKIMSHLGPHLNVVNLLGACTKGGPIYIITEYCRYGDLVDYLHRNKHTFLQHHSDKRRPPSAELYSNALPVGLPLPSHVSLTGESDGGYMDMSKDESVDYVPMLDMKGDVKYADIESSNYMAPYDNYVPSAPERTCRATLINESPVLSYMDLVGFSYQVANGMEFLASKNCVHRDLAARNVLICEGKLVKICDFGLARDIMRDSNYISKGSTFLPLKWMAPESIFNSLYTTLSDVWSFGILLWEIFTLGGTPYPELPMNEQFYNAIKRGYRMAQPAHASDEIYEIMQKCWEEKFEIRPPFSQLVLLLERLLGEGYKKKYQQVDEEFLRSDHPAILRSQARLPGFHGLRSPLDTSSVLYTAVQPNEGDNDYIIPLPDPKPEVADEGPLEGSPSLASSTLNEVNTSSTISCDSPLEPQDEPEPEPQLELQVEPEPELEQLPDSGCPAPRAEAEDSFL
Sequence of Serine/threonine-protein kinase pim-2 (Homo sapiens) (Q9P1W9 whole entry, looked up): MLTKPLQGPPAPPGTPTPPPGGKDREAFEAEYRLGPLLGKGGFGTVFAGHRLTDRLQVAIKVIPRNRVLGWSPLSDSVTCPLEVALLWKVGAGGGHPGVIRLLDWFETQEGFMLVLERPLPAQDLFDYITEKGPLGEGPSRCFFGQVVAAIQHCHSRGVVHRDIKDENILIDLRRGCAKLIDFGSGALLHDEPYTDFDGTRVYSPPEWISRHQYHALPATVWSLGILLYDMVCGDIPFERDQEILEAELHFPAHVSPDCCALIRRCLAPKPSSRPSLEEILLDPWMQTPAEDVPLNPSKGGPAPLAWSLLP
Sequence of Serine/threonine-protein kinase 25 (Homo sapiens) (O00506 whole entry, looked up): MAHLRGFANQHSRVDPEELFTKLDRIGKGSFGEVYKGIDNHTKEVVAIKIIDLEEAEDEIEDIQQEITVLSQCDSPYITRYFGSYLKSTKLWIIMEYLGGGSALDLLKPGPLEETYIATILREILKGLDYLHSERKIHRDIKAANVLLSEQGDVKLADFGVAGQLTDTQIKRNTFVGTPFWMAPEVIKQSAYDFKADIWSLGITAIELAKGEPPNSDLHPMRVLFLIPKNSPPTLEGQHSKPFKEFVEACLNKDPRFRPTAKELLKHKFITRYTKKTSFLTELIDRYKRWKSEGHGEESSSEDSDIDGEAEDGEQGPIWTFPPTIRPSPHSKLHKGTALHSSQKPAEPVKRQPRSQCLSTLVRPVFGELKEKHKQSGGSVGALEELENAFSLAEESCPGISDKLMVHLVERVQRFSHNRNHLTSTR
Sequence of Mitogen-activated protein kinase 8 (Homo sapiens) (P45983 whole entry): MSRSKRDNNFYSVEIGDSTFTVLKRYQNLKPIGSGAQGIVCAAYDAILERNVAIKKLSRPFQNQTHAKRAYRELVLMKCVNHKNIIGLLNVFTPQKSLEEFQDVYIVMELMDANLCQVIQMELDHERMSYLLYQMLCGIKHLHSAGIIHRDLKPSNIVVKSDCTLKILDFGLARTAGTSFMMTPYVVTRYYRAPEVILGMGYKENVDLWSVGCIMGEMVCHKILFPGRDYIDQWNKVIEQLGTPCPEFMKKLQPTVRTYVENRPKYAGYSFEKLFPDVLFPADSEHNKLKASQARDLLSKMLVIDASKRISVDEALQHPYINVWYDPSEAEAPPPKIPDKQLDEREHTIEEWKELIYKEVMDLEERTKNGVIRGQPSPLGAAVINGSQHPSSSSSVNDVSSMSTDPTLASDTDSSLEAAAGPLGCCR
Sequence of Focal adhesion kinase 1 (Homo sapiens) (Q05397 2-1052 limits assumed): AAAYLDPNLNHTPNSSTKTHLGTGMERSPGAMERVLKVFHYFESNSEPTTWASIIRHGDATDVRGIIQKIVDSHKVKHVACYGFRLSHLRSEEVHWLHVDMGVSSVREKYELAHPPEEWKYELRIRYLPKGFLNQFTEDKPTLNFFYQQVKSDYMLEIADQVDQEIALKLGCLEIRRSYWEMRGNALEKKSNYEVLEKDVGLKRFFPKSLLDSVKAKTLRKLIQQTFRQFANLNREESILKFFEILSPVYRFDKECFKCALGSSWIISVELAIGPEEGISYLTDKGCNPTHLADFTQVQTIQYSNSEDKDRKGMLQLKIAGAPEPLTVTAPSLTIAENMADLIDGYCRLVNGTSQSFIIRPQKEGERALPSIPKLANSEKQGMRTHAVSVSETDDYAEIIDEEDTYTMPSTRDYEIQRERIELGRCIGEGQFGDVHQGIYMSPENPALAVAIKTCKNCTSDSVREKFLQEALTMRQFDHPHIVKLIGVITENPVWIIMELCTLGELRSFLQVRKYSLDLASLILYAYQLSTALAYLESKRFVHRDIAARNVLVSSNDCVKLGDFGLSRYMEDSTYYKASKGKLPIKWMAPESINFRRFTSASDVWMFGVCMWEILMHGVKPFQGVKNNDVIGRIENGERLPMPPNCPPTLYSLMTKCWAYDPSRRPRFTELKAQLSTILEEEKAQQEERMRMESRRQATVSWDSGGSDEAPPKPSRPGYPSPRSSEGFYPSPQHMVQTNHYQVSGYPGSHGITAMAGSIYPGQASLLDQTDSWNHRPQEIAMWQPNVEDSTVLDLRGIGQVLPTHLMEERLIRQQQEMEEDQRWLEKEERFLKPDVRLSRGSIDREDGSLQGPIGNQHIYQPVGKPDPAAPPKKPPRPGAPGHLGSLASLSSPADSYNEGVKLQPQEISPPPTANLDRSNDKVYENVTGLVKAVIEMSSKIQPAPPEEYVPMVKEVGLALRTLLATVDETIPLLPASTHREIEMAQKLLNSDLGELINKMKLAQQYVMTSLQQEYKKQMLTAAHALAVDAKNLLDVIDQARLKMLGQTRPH

Structure (SMILES): Oc1n[nH]c2nnc(-c3c(-c4ccccc4)nn4ccccc34)cc12
- inhibition [1]: inactive

- inhibition [2]: 6.05%
- inhibition [3]: 1.65%
- inhibition [4]: -3.04%
- inhibition [5]: 8.57%
- inhibition [6]: 1.73%
- inhibition [7]: -9.03%
Structure (SMILES): C[C@]1(O)C[C@@H](c2nc(-c3ccc4ccc(-c5ccccc5)nc4c3)c3c(N)nccn32)C1

- inhibition [8]: -7.51%
- inhibition [9]: -7.19%
- inhibition [10]: -1.19%
- inhibition [11]: 0.3%
- inhibition [12]: -2.94%
Structure (SMILES): C[C@@]1(C(=O)Nc2ccc(F)nc2)CCCN1c1nc(Nc2cc(C3CC3)n[nH]2)c2cccn2n1

— ChEMBL document CHEMBL5653615 (J Biol Chem, 2013)
